Measured values taken from patent publication US11661431B2, “Thienopyrrole compounds” (Gilead Sciences, Inc., priority 2021, dated 2023).

What was measured:
TLR7 = TLR7 (Homo sapiens (Human), UniProt Q9NYK1); assay: TLR7 human peripheral blood mononuclear cell (PBMC) cell-based assay (GS-986 as agonist; IL-6 and IFNα readout); settings: human PBMCs, TLR7 agonist GS-986 at 400 nM, 6 hours, antagonist potency; read-out: TLR-7 EC50
Outline: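 IL-6 and IFNα released into supernatant were quantified by electrochemiluminescence immunoassay. Before that, human PBMCs at 100,000 per well received a 10-point antagonist titration for 1 h, then TLR7 agonist for 6 more hours, all at 37 °C, 5% CO2.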

TLR8 = TLR8 (Homo sapiens (Human), UniProt Q9NR97); assay: TLR8 human peripheral blood mononuclear cell (PBMC) cell-based assay (Compound A as agonist; TNFα and IL12p40 readout); settings: human PBMCs, TLR8 agonist Compound A at 800 nM, 6 hours, antagonist potency; read-out: TLR-8 EC50
Sequence of TLR8 (Q9NR97 27-1041): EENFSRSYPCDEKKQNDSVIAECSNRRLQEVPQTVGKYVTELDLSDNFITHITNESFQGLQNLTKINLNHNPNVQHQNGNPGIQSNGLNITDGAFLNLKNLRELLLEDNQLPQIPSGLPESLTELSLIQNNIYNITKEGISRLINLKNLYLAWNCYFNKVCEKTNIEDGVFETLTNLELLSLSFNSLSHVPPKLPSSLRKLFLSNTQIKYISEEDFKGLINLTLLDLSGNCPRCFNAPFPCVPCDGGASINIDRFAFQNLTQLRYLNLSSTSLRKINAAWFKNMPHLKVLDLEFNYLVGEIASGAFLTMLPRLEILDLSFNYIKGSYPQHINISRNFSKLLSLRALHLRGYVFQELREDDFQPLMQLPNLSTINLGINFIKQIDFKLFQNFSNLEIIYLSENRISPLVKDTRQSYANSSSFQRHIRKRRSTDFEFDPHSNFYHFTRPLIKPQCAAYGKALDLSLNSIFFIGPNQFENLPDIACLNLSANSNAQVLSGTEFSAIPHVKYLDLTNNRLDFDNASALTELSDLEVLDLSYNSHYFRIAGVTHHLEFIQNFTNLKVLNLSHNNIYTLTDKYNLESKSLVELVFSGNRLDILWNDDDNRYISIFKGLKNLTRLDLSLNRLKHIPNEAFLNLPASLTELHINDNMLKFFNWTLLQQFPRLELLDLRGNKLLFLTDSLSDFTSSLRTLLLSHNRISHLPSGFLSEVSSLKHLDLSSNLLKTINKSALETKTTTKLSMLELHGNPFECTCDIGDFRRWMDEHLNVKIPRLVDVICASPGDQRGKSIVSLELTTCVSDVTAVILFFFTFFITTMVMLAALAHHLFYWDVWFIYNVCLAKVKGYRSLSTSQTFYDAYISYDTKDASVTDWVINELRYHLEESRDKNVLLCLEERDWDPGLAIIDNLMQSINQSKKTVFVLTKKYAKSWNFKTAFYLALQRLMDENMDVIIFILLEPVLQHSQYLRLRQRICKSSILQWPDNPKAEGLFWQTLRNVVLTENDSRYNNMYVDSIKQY

Sequence of TLR7 (Q9NYK1 27-1049): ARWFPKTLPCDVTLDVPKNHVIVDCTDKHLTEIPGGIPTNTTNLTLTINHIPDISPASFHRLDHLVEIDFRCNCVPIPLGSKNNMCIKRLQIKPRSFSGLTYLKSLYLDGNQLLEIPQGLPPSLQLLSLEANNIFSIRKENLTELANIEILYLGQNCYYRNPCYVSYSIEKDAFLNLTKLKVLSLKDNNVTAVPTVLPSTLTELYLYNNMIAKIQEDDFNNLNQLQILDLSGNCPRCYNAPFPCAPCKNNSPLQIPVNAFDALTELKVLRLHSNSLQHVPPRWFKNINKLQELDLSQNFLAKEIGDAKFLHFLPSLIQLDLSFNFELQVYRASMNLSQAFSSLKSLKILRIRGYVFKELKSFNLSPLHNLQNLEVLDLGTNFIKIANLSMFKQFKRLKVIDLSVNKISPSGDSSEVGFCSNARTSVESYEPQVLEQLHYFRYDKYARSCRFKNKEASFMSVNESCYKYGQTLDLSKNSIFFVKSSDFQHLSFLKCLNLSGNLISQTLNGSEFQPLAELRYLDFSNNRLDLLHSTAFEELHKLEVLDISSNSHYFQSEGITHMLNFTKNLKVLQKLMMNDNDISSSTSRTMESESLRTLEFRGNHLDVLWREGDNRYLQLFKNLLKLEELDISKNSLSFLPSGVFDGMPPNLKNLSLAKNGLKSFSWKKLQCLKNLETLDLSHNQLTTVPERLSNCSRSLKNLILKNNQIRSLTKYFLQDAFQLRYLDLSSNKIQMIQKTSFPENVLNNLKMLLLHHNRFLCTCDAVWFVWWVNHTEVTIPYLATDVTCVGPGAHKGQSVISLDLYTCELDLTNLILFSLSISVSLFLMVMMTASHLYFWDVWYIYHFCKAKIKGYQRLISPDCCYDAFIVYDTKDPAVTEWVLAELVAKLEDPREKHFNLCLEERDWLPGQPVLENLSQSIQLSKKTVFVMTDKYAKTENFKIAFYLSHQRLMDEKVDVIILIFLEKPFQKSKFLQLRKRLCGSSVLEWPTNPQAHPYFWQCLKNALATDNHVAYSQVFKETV

Row | Structure (SMILES) | EC50 (TLR7) [pM] | EC50 (TLR8) [pM]
1 | Cc1nc2c(C)cc(-c3[nH]c4sc(C5CCN(C(=O)[C@H]6COCCN6)CC5)c(C)c4c3C(C)C)cn2n1 [Example 135] | 280 | 27000
2 | Cc1nc2c(C)cc(-c3[nH]c4sc(C5CCN(C(=O)[C@@H]6COCCN6)CC5)c(C)c4c3C(C)C)cn2n1 [Example 136] | 680 | 17900
3 | Cc1c(C2CC3(CCCNC3)C2)sc2[nH]c(-c3cc(C)c4ncnn4c3)c(C(C)C)c12 (stereo not shown) [Example 137] | 730 | 1710
4 | Cc1c(C2CC3(CCCN3)C2)sc2[nH]c(-c3cc(C)c4ncnn4c3)c(C(C)C)c12 (stereo not shown) [Example 138] | 190 | 490
5 | Cc1c(-c2[nH]c3sc([C@@H]4C[C@@H]5C[C@H]4CN5CC(N)=O)c(C)c3c2C(C)C)cn2nc(Cl)nc2c1C [Example 139] | 540 | 290
6 | Cc1c(C2CC3(CCCN3CC(N)=O)C2)sc2[nH]c(-c3cc(C)c4ncnn4c3)c(C(C)C)c12 (stereo not shown) [Example 140] | 910 | 3450
7 | Cc1cc(-c2[nH]c3sc([C@H]4C[C@@]5(CCCN(CC(N)=O)C5)C4)c(C)c3c2C(C)C)cn2ncnc12 [Example 141] | 420 | 10600
8 | Cc1cc(-c2[nH]c3sc([C@H]4C[C@]5(CCCN(CC(N)=O)C5)C4)c(C)c3c2C(C)C)cn2ncnc12 [Example 142] | 2310 | 7470
9 | Cc1c(-c2[nH]c3sc(C4CCN(C(=O)[C@@H]5C[C@@H]6OCC[C@@H]6N5)CC4)c(C)c3c2C(C)C)cn2ncnc2c1C [Example 143] | 2570 | 10900
10 | Cc1c(-c2[nH]c3sc(C4CCC5(CC4)CNCCO5)c(C)c3c2C(C)C)cn2ncnc2c1C (stereo not shown) [Example 144, 9-(5-(7,8-dimethyl-[1,2,4]triazolo[1,5-a]pyridin-6-yl)-4-isopropyl-3-methyl-6H-thieno[2,3-b]pyrrol-2-yl)-1-oxa-4-azaspiro[5.5]undecane] | 250 | 2030
11 | Cc1c([C@H]2C[C@H]3C[C@@H]2CN3CC(N)=O)sc2[nH]c(-c3cc(C)c4ncnn4c3)c(C(C)C)c12 [Example 145] | 90 | 1860
12 | Cc1c(-c2[nH]c3sc([C@@H]4C[C@@H]5C[C@H]4CN5C(=O)[C@H]4COCCN4)c(C)c3c2C(C)C)cn2ncnc2c1C [Example 146] | 900 | 12800
13 | Cc1c(-c2[nH]c3sc([C@@H]4C[C@@H]5C[C@H]4CN5C(=O)[C@H]4C[C@@H](F)CN4)c(C)c3c2C(C)C)cn2ncnc2c1C [Example 147] | 230 | 16000
14 | Cc1c(-c2[nH]c3sc([C@@H]4C[C@@H]5C[C@H]4CN5C(=O)[C@H]4C[C@H](F)CN4)c(C)c3c2C(C)C)cn2ncnc2c1C [Example 148] | 510 | 15900
15 | Cc1c(-c2[nH]c3sc([C@@H]4C[C@@H]5C[C@H]4CN5C(=O)[C@@H]4C[C@H](F)CN4)c(C)c3c2C(C)C)cn2ncnc2c1C [Example 149] | 720 | 9530
16 | Cc1c(-c2[nH]c3sc([C@@H]4C[C@@H]5C[C@H]4CN5C(=O)[C@@H]4C[C@@H](F)CN4)c(C)c3c2C(C)C)cn2ncnc2c1C [Example 150] | 1640 | 14200
17 | Cc1c(-c2[nH]c3sc(C4CC(C(=O)N5CCNCC5)C4)c(C)c3c2C(C)C)cn2ncnc2c1C (stereo not shown) [Example 151, (3-(5-(7,8-dimethyl-[1,2,4]triazolo[1,5-a]pyridin-6-yl)-4-isopropyl-3-methyl-6H-thieno[2,3-b]pyrrol-2-yl)cyclobutyl)(piperazin-1-yl)methanone] | 260 | 990
18 | Cc1c(-c2[nH]c3sc([C@@H]4C[C@@H]5C[C@H]4CN5Cc4n[nH]c(=O)[nH]4)c(C)c3c2C(C)C)cn2ncnc2c1C [Example 152] | 420 | 2860
19 | Cc1c(-c2[nH]c3sc([C@@H]4C[C@@H]5C[C@H]4CN5C4(CC#N)CN(S(C)(=O)=O)C4)c(C)c3c2C(C)C)cn2ncnc2c1C [Example 153] | 770 | 23200
20 | Cc1c(-c2[nH]c3sc([C@@H]4C[C@@H]5C[C@H]4CN5Cc4ccc(Br)cc4)c(C)c3c2C(C)C)cn2ncnc2c1C [Example 154] | 440 | 850
21 | Cc1c(-c2[nH]c3sc([C@@H]4C[C@@H]5C[C@H]4CN5CC(=O)N=S(C)(C)=O)c(C)c3c2C(C)C)cn2ncnc2c1C [Example 155] | < 50 | 510
22 | Cc1c(C2CCN(S(=O)(=O)N3CCNCC3)CC2)sc2[nH]c(-c3cc(C)c4ncnn4c3)c(C(C)C)c12 [Example 156] | < 50 | 9800
23 | Cc1c(C2CCN(S(=O)(=O)N3CCN(C)CC3)CC2)sc2[nH]c(-c3cc(C)c4ncnn4c3)c(C(C)C)c12 [Example 157] | 170 | 29600
24 | Cc1c(C2CCN(C(=O)[C@H]3COC(C)(C)CN3)CC2)sc2[nH]c(-c3cc(C)c4ncnn4c3)c(C(C)C)c12 [Example 158] | 150 | 61800

Row | Structure (SMILES) | EC50 (TLR7) [pM] | EC50 (TLR8) [pM]
25 | Cc1c(C2CCN(C(=O)[C@@H]3COC(C)(C)CN3)CC2)sc2[nH]c(-c3cc(C)c4ncnn4c3)c(C(C)C)c12 [Example 159] | 940 | 31500
26 | COCc1c(C2CCN(CC(N)=O)CC2)sc2[nH]c(-c3cc(C)c4ncnn4c3)c(C(C)C)c12 [Example 160] | 260 | 6510
27 | Cc1c(C2CCCN(CC(N)=O)CC2)sc2[nH]c(-c3cc(C)c4ncnn4c3)c(C(C)C)c12 (stereo not shown) [Example 161, 2-(4-(4-isopropyl-3-methyl-5-(8-methyl-[1,2,4]triazolo[1,5-a]pyridin-6-yl)-6H-thieno[2,3-b]pyrrol-2-yl)azepan-1-yl)acetamide] | 130 | 7290
28 | Cc1cc(-c2[nH]c3sc(C4CCN(CC(N)=O)CC4)c(C(F)F)c3c2C(C)C)cn2ncnc12 [Example 162] | 3410 | 24300
29 | Cc1c(-c2[nH]c3sc([C@@H]4C[C@@H]5C[C@H]4CN5CC(=O)N(C)C)c(C)c3c2C(C)C)cn2ncnc2c1C [Example 163] | 300 | 380
30 | Cc1c(-c2[nH]c3sc([C@@H]4C[C@@H]5C[C@H]4CN5CCCS(C)(=O)=O)c(C)c3c2C(C)C)cn2ncnc2c1C [Example 164] | 230 | < 50
31 | Cc1c(-c2[nH]c3sc([C@@H]4C[C@@H]5C[C@H]4CN5CC#N)c(C)c3c2C(C)C)cn2ncnc2c1C [Example 165] | 130 | 410
32 | Cc1c(-c2[nH]c3sc([C@@H]4C[C@@H]5C[C@H]4CN5CCC#N)c(C)c3c2C(C)C)cn2ncnc2c1C [Example 166] | 1200 | 480
33 | Cc1c(-c2[nH]c3sc([C@@H]4C[C@@H]5C[C@H]4CN5C4COC4)c(C)c3c2C(C)C)cn2ncnc2c1C [Example 167] | 90 | 450
34 | Cc1c(-c2[nH]c3sc([C@@H]4C[C@@H]5C[C@H]4CN5C4CCS(=O)(=O)CC4)c(C)c3c2C(C)C)cn2ncnc2c1C [Example 168] | 740 | 960
35 | Cc1c(-c2[nH]c3sc([C@@H]4C[C@@H]5C[C@H]4CN5C4CC5(C4)CS(=O)(=O)C5)c(C)c3c2C(C)C)cn2ncnc2c1C [Example 169] | 290 | 70
36 | Cc1c(-c2[nH]c3sc([C@@H]4C[C@@H]5C[C@H]4CN5Cc4cccc(=O)[nH]4)c(C)c3c2C(C)C)cn2ncnc2c1C [Example 170] | < 50 | 260
37 | Cc1c(-c2[nH]c3sc([C@@H]4C[C@@H]5C[C@H]4CN5Cc4ccc[nH]c4=O)c(C)c3c2C(C)C)cn2ncnc2c1C [Example 171] | < 50 | 60
38 | Cc1c(-c2[nH]c3sc([C@@H]4C[C@@H]5C[C@H]4CN5Cc4cccn(C(F)F)c4=O)c(C)c3c2C(C)C)cn2ncnc2c1C [Example 172] | 3030 | 820
39 | Cc1c(-c2[nH]c3sc([C@@H]4C[C@@H]5C[C@H]4CN5CC4(F)COC4)c(C)c3c2C(C)C)cn2ncnc2c1C [Example 173] | 150 | 1060
40 | Cc1c(-c2[nH]c3sc([C@@H]4C[C@@H]5C[C@H]4CN5Cc4c[nH]nn4)c(C)c3c2C(C)C)cn2ncnc2c1C [Example 174] | < 50 | 90
41 | Cc1c(-c2[nH]c3sc([C@@H]4C[C@@H]5C[C@H]4CN5Cc4nnc[nH]4)c(C)c3c2C(C)C)cn2ncnc2c1C [Example 176] | 80 | 120
42 | Cc1c(-c2[nH]c3sc([C@@H]4C[C@@H]5C[C@H]4CN5Cc4cc[nH]c(=O)c4)c(C)c3c2C(C)C)cn2ncnc2c1C [Example 177] | 500 | 70
43 | Cc1c(-c2[nH]c3sc([C@@H]4C[C@@H]5C[C@H]4CN5Cc4ccc(=O)[nH]c4)c(C)c3c2C(C)C)cn2ncnc2c1C [Example 178] | 60 | 160
44 | Cc1c(-c2[nH]c3sc([C@@H]4C[C@@H]5C[C@H]4CN5CC(=O)OC(C)(C)C)c(C)c3c2C(C)C)cn2ncnc2c1C [Example 179, tert-butyl 2-((1S,4R,5R)-5-(5-(7,8-dimethyl-[1,2,4]triazolo[1,5-a]pyridin-6-yl)-4-isopropyl-3-methyl-6H-thieno[2,3-b]pyrrol-2-yl)-2-azabicyclo[2.2.1]heptan-2-yl)acetate] | 1710 | 3530
45 | Cc1c(-c2[nH]c3sc([C@@H]4C[C@@H]5C[C@H]4CN5CCS(N)(=O)=O)c(C)c3c2C(C)C)cn2ncnc2c1C [Example 180] | < 50 | 170
46 | Cc1c(-c2[nH]c3sc([C@@H]4C[C@@H]5C[C@H]4CN5CCS(=O)(=O)N(C)C)c(C)c3c2C(C)C)cn2ncnc2c1C [Example 181] | 270 | 1230
47 | CNS(=O)(=O)CCN1C[C@@H]2C[C@H]1C[C@H]2c1sc2[nH]c(-c3cn4ncnc4c(C)c3C)c(C(C)C)c2c1C [Example 182] | 70 | 320
